Assay results taken from patent US9663460B2, “Sulfur derivatives as chemokine receptor modulators” (ALLERGAN, INC., priority 2010, dated 2017).

Each compound was assayed against CCR2 (Homo sapiens (Human), UniProt P41597) (assay: Calcium activity assayed on the FLIPR Tetra in HEK-Gqi5 cells stably expressing CCR2). Conditions: FLIPR Tetra calcium assay.
Type: cell-based
Procedure: HEK-Gqi5 cells stably expressing CCR2 were cultured in (DMEM high glucose, 10% FBS, 1% PSA, 400 μg/ml geneticin and 50 μg/ml hygromycin. Appropriate positive control chemokines (MCP-1, MIP1A or RANTES) was used as the positive control agonist for screening compound-induced calcium activity assayed on the FLIPR^Tetra. The drug plates were prepared in 384-well microplates using the EP3 and the MuItiPROBE robotic liquid handling systems. Compounds were synthesized and tested for CCR^2 activity.

CCR2, sequence (P41597 whole entry, species assumed): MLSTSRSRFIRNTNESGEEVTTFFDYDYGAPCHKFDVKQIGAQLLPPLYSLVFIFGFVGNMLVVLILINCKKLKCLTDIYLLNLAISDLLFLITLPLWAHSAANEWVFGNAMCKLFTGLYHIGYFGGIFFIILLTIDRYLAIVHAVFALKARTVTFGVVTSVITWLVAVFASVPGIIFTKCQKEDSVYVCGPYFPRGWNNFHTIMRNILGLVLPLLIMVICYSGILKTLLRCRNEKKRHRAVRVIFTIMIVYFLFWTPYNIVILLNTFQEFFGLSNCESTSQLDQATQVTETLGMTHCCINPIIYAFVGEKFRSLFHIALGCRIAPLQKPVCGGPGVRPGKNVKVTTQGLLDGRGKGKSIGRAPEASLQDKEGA

Which “CCR2 % ANTAGONISM” value does the source give for `O=S(=O)(Cc1cccc[n+]1[O-])c1ccc(Cl)cc1NS(=O)(=O)c1cc2ccccc2o1` [N-(5-chloro-2-{[(1-oxidopyridin-2-yl)methyl]sulfonyl}phenyl)-1-benzofuran-2-sulfonamide] here?
Its value is 102%.

What about the IC50 of the same compound?
The IC50 was 0.663 µM.

`O=c1cc(C[S+]([O-])c2ccc(Cl)cc2NS(=O)(=O)c2cc3ccccc3o2)[nH]c(=O)[nH]1` (stereo not shown) [N-(5-chloro-2-{[(2,6-dioxo-1,2,3,6-tetrahydropyrimidin-4-yl)methyl]sulfinyl}phenyl)-1-benzofuran-2-sulfonamide] was tested. Which “CCR2 % ANTAGONISM” value did it give?
The value was 62%.

With `O=S(=O)(Nc1cc(Cl)ccc1[S+]([O-])Cc1ccccn1)c1ccc(Cl)c(C(F)(F)F)c1` (stereo not shown) [4-chloro-N-{5-chloro-2-[(pyridin-2-ylmethyl)sulfinyl]phenyl}-3-(trifluoromethyl)benzenesulfonamide] as the compound, how does the “CCR2 % ANTAGONISM” value read?
The value was 83%.

And the IC50?
Its IC50 is 0.092 µM.

`O=S(=O)(Nc1cc(Cl)ccc1SCc1c[nH]cn1)c1cc2ccccc2o1` [N-{5-chloro-2-[(1H-imidazol-4-ylmethyl)thio]phenyl}-1-benzofuran-2-sulfonamide] was tested. Which “CCR2 % ANTAGONISM” value did it give?
Its value is 100%.

What about the IC50 of the same compound?
The IC50 was 0.01 µM.

Which “CCR2 % ANTAGONISM” value does the source give for `CC(=O)NCC[S+]([O-])c1ccc(Cl)cc1NS(=O)(=O)c1ccc(Cl)c(C(F)(F)F)c1` (stereo not shown) [N-(2-{[4-chloro-2-({[4-chloro-3-(trifluoromethyl)phenyl]sulfonyl}amino)phenyl]sulfinyl}ethyl)acetamide] here?
The value was 97%.

With `N#Cc1ccc(SCc2ccccc2)c(NS(=O)(=O)c2cc3ccccc3o2)c1` [N-[2-(benzylthio)-5-cyanophenyl]-1-benzofuran-2-sulfonamide] as the compound, how does the “CCR2 % ANTAGONISM” value read?
Its value is 78%.

What about the IC50 of the same compound?
Its IC50 is 3.84 µM.

Which “CCR2 % ANTAGONISM” value does the source give for `CN(C)C(=O)CCS(=O)(=O)c1ccc(Cl)cc1NS(=O)(=O)c1ccc(Cl)cc1F` [3-[(4-chloro-2-{[(4-chloro-2-fluorophenyl)sulfonyl]amino}phenyl)sulfonyl]-N,N-dimethylpropanamide] here?
Its value is 97%.

And the IC50?
Its IC50 is 0.211 µM.

For `O=[N+]([O-])c1cccc(C[S+]([O-])c2ccc(F)cc2NS(=O)(=O)c2cc3ccccc3o2)c1` (stereo not shown) [N-{5-fluoro-2-[(3-nitrobenzyl)sulfinyl]phenyl}-1-benzofuran-2-sulfonamide], which “CCR2 % ANTAGONISM” value is on record?
Its value is 96%.

And the IC50?
Its IC50 is 0.314 µM.

With `Nc1cccc(CSc2ccc(Cl)cc2NS(=O)(=O)c2cc3ccccc3o2)n1` [N-(2-{[(6-aminopyridin-2-yl)methyl]thio}-5-chlorophenyl)-1-benzofuran-2-sulfonamide] as the compound, how does the “CCR2 % ANTAGONISM” value read?
Its value is 94%.

And the IC50?
Its IC50 is 0.032 µM.

How did the “CCR2 % ANTAGONISM” value turn out when `Nc1cccc(CS(=O)(=O)c2ccc(Cl)cc2NS(=O)(=O)c2ccc(Cl)cc2)c1` [N-{2-[(3-aminobenzyl)sulfonyl]-5-chlorophenyl}-4-chlorobenzenesulfonamide] was run?
Its value is 99%.

What about the IC50 of the same compound?
The IC50 was 0.421 µM.

How did the “CCR2 % ANTAGONISM” value turn out when `CS(=O)(=O)c1ccc(Cl)cc1NS(=O)(=O)c1ccc(Cl)cc1F` [4-chloro-N-[5-chloro-2-(methylsulfonyl)phenyl]-2-fluorobenzenesulfonamide] was run?
Its value is 98%.

What about the IC50 of the same compound?
The IC50 was 0.171 µM.

What does the source list for `Nc1nc(C[S+]([O-])c2ccc(Cl)cc2NS(=O)(=O)c2cc3ccccc3o2)cs1` (stereo not shown) [N-(2-{[(2-amino-1,3-thiazol-4-yl)methyl]sulfinyl}-5-chlorophenyl)-1-benzofuran-2-sulfonamide]?
CCR2 % ANTAGONISM: 100%; IC50: 0.262 µM

`C[S+]([O-])c1ccc(Cl)cc1NS(=O)(=O)c1ccc(Cl)cc1` (stereo not shown) [4-chloro-N-[5-chloro-2-(methylsulfinyl)phenyl]benzenesulfonamide] was tested. Which “CCR2 % ANTAGONISM” value did it give?
Its value is 91%.

And the IC50?
The IC50 was 0.062 µM.

What does the source list for `O=S(=O)(Nc1cc(Cl)ccc1SCc1ccccc1)c1cc2ccccc2o1` [N-[2-(benzylthio)-5-chlorophenyl]-1-benzofuran-2-sulfonamide]?
CCR2 % ANTAGONISM: 90%; IC50: 0.129 µM

`O=S(=O)(Cc1ncc[nH]1)c1ccc(Cl)cc1NS(=O)(=O)c1cc2ccccc2o1` [N-{5-chloro-2-[(1H-imidazol-2-ylmethyl)sulfonyl]phenyl}-1-benzofuran-2-sulfonamide] was tested. Which “CCR2 % ANTAGONISM” value did it give?
Its value is 109%.

What about the IC50 of the same compound?
The IC50 was 1.35 µM.

`O=c1[nH]cc(CS(=O)(=O)c2ccc(Cl)cc2NS(=O)(=O)c2cc3ccccc3o2)c(=O)[nH]1` [N-(5-chloro-2-{[(2,4-dioxo-1,2,3,4-tetrahydropyrimidin-5-yl)methyl]sulfonyl}phenyl)-1-benzofuran-2-sulfonamide] was tested. Which “CCR2 % ANTAGONISM” value did it give?
The value was 0%.

Which results are given for `O=S(=O)(Nc1cc(Cl)ccc1SCc1ncc[nH]1)c1cc2ccccc2o1` [N-{5-chloro-2-[(1H-imidazol-2-ylmethyl)thio]phenyl}-1-benzofuran-2-sulfonamide]?
CCR2 % ANTAGONISM: 93%; IC50: 0.06 µM

For `O=S(=O)(Nc1cc(Cl)ccc1[S+]([O-])Cc1cccc[n+]1[O-])c1cc2ccccc2o1` (stereo not shown) [N-(5-chloro-2-{[(1-oxidopyridin-2-yl)methyl]sulfinyl}phenyl)-1-benzofuran-2-sulfonamide], which “CCR2 % ANTAGONISM” value is on record?
The value was 101%.

And the IC50?
Its IC50 is 0.846 µM.

Which results are given for `C[S+]([O-])c1ccc(Cl)cc1NS(=O)(=O)c1cccc(Cl)c1F` (stereo not shown) [3-chloro-N-[5-chloro-2-(methylsulfinyl)phenyl]-2-fluorobenzenesulfonamide]?
CCR2 % ANTAGONISM: 101%; IC50: 0.061 µM

How did the “CCR2 % ANTAGONISM” value turn out when `Nc1cccc(CSc2ccc(F)cc2NS(=O)(=O)c2cc3ccccc3o2)c1` [N-{2-[(3-aminobenzyl)thio]-5-fluorophenyl}-1-benzofuran-2-sulfonamide] was run?
The value was 97%.

What about the IC50 of the same compound?
Its IC50 is 0.055 µM.

`O=S(=O)(Nc1cc(Cl)ccc1SCc1cccnc1)c1ccc(Cl)c(C(F)(F)F)c1` [4-chloro-N-{5-chloro-2-[(pyridin-3-ylmethyl)thio]phenyl}-3-(trifluoromethyl)benzenesulfonamide] was tested. Which “CCR2 % ANTAGONISM” value did it give?
The value was 85%.

What about the IC50 of the same compound?
The IC50 was 0.094 µM.

For `Nc1cccc(CSc2ccccc2NS(=O)(=O)c2cc3ccccc3o2)c1` [N-{2-[(3-aminobenzyl)thio]phenyl}-1-benzofuran-2-sulfonamide], which “CCR2 % ANTAGONISM” value is on record?
Its value is 105%.

What about the IC50 of the same compound?
The IC50 was 0.676 µM.

With `CN(C)C(=O)CCSc1ccc(Cl)cc1NS(=O)(=O)c1ccc(F)cc1F` [3-[(4-chloro-2-{[(2,4-difluorophenyl)sulfonyl]amino}phenyl)thio]-N,N-dimethylpropanamide] as the compound, how does the “CCR2 % ANTAGONISM” value read?
The value was 43%.

And the IC50?
Its IC50 is 2.15 µM.

Which results are given for `C[S+]([O-])c1ccc(Cl)cc1NS(=O)(=O)c1ccc(Cl)cc1F` (stereo not shown) [4-chloro-N-[5-chloro-2-(methylsulfinyl)phenyl]-2-fluorobenzenesulfonamide]?
CCR2 % ANTAGONISM: 103%; IC50: 0.085 µM

`CC(C)NC(=O)CCSc1ccc(Cl)cc1NS(=O)(=O)c1ccc(Cl)c(C(F)(F)F)c1` [3-{[4-chloro-2-({[4-chloro-3-(trifluoromethyl)phenyl]sulfonyl}amino)phenyl]thio}-N-isopropylpropanamide] was tested. Which “CCR2 % ANTAGONISM” value did it give?
Its value is 59%.

And the IC50?
Its IC50 is 1.03 µM.

For `CN(C)C(=O)CCS(=O)(=O)c1ccc(Cl)cc1NS(=O)(=O)c1ccc(F)cc1F` [3-[(4-chloro-2-{[(2,4-difluorophenyl)sulfonyl]amino}phenyl)sulfonyl]-N,N-dimethylpropanamide], which “CCR2 % ANTAGONISM” value is on record?
Its value is 89%.

What about the IC50 of the same compound?
Its IC50 is 1.58 µM.

Which results are given for `CCCn1cnc(CSc2ccc(Cl)cc2NS(=O)(=O)c2cc3ccccc3o2)c1` [N-(5-chloro-2-{[(1-propyl-1H-imidazol-4-yl)methyl]thio}phenyl)-1-benzofuran-2-sulfonamide]?
CCR2 % ANTAGONISM: 79%; IC50: 1.28 µM

Which “CCR2 % ANTAGONISM” value does the source give for `CN(C)CCCS(=O)(=O)c1ccc(Cl)cc1NS(=O)(=O)c1cc2ccccc2o1` [N-(5-chloro-2-{[3-(dimethylamino)propyl]sulfonyl}phenyl)-1-benzofuran-2-sulfonamide] here?
The value was 96%.

Which “CCR2 % ANTAGONISM” value does the source give for `CS(=O)(=O)c1ccc(Cl)cc1NS(=O)(=O)c1ccc(C(F)(F)F)c([N+](=O)[O-])c1` [N-[5-chloro-2-(methylsulfonyl)phenyl]-3-nitro-4-(trifluoromethyl)benzenesulfonamide] here?
Its value is 97%.

And the IC50?
Its IC50 is 0.213 µM.

Which “CCR2 % ANTAGONISM” value does the source give for `CN(C)C(=O)CCCS(=O)(=O)c1ccc(Cl)cc1NS(=O)(=O)c1cc2ccccc2o1` [4-({2-[(1-benzofuran-2-ylsulfonyl)amino]-4-chlorophenyl}sulfonyl)-N,N-dimethylbutanamide] here?
The value was 98%.

What about the IC50 of the same compound?
Its IC50 is 1 µM.

How did the “CCR2 % ANTAGONISM” value turn out when `COc1ccc([S+]([O-])Cc2cccc([N+](=O)[O-])c2)c(NS(=O)(=O)c2cc3ccccc3o2)c1` (stereo not shown) [N-{5-methoxy-2-[(3-nitrobenzyl)sulfinyl]phenyl}-1-benzofuran-2-sulfonamide] was run?
The value was 84%.

What about the IC50 of the same compound?
Its IC50 is 0.845 µM.

`CC[S+]([O-])c1ccc(Cl)cc1NS(=O)(=O)c1ccc(Cl)c(C(F)(F)F)c1` (stereo not shown) [4-chloro-N-[5-chloro-2-(ethylsulfinyl)phenyl]-3-(trifluoromethyl)benzenesulfonamide] was tested. Which “CCR2 % ANTAGONISM” value did it give?
The value was 78%.

What about the IC50 of the same compound?
The IC50 was 0.05 µM.

Which results are given for `CCSc1ccc(Cl)cc1NS(=O)(=O)c1ccc(Cl)c(C(F)(F)F)c1` [4-chloro-N-[5-chloro-2-(ethylthio)phenyl]-3-(trifluoromethyl)benzenesulfonamide]?
CCR2 % ANTAGONISM: 81%; IC50: 0.193 µM

`O=S(=O)(Cc1c[nH]cn1)c1ccc(Cl)cc1NS(=O)(=O)c1ccc(Cl)c(C(F)(F)F)c1` [4-chloro-N-{5-chloro-2-[(1H-imidazol-4-ylmethyl)sulfonyl]phenyl}-3-(trifluoromethyl)benzenesulfonamide] was tested. Which “CCR2 % ANTAGONISM” value did it give?
Its value is 108%.

And the IC50?
Its IC50 is 0.051 µM.
